Here are results for 52 molecules from patent US11478460B2, “Diaryl substituted 6,5-fused ring compounds as C5aR inhibitors” (CHEMOCENTRYX, INC., priority 2017, dated 2022).

Molecules are shown by their SMILES.

Sequence of C5aR (P21730 whole entry): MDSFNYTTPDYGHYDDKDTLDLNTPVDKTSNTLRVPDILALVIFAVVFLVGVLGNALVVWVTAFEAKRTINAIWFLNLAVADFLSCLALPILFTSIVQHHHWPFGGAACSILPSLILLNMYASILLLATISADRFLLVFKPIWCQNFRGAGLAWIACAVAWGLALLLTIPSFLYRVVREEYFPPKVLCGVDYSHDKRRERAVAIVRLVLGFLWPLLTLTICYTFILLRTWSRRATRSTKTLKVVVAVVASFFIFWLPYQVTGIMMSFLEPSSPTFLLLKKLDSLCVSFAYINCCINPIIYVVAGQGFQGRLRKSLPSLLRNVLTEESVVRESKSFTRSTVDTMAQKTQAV

This test has as its target C5aR (Homo sapiens (Human), UniProt P21730). Briefly: Chemotaxis assay using U937 cells (C5aR mediated migration). The class given is cell-based. The settings on record: read-out: Mig IC50. As to the method:
U937 cells are a monocytic cell line which express C5aR, and are available from ATCC (VA). These cells were cultured as a suspension in RPMI-1640 medium supplemented with 2 mM L-glutamine, 1.5 g/L sodium bicarbonate, 4.5 g/L glucose, 10 mM HEPES, 1 mM sodium pyruvate, and 10% FBS. Cells were grown under 5% CO2/95% air, 100% humidity at 37° C. and subcultured twice weekly at 1:6 (cells were cultured at a density range of 1×10^5 to 2×10^6 cells/mL) and harvested at 1×10^6 cells/mL. Prior to assay, cells are treated overnight with 0.5 mM of cyclic AMP (Sigma, OH) and washed once prior to use. cAMP treated U937 cells can be used in C5aR ligand binding and functional assays.
Optionally, compounds may be further assayed for their ability to inhibit chemotaxis in cells. Chemotaxis assays are performed using 5 μm pore polycarbonate, polyvinylpyrrolidone-coated filters in 96-well chemotaxis chambers (Neuroprobe; Gaithersburg, Md.) using chemotaxis buffer (Hank's balanced salt solution (HBSS) and 1% FBS). C5aR ligands (i.e., C5a, R&D Systems; Minneapolis, Minn.) are use to evaluate compound mediated inhibition of C5aR mediated migration. Other chemokines (i.e., SDF-1α; R&D Systems; Minneapolis, Minn.) are used as specificity controls. The lower chamber is loaded with 29 μl of chemokine (i.e., 0.03 nM C5a) and varying amounts of compound; the top chamber contains 100,000 U937 or neutrophil cells in 20 μl. The chambers are incubated 1.5 hours at 37° C., and the number of cells in the lower chamber quantified either by direct cell counts in five high powered fields per well or by the CyQuant assay (Molecular Probes), a fluorescent dye method that measures nucleic acid content and microscopic observation.
The compounds in Table 1, below, were prepared using the methods described above. Characterization data is provided for each compound listed. Activity is provided as follows for the chemotaxis assay using U937 cells as described herein (Example 12): +, 500 nM<IC50; ++, 50 nM<IC50≤500 nM; +++, 5 nM<IC50≤50 nM; and ++++, IC50≤5 nM.
For orientation: IC50 means the concentration that gives 50% inhibition. For the molecule `CC(C)COc1cccc(F)c1-n1nc2c(c1-c1cc(F)c(NC(N)=O)cc1F)CN(C(C)(C)c1ccccc1)CC2` [Example 1.198], the IC50 is not above 5 nM.

Take `Cc1ccc(C(C)(C)C)cc1N1CCc2nn(-c3c(C)cccc3C(C)C)c(-c3ccc(NC(N)=O)cc3)c2C1` [Example 1.388]: the IC50 fell in the range of 5 to 50 nM.

With `Cc1cccc(OCC(C)C)c1-n1nc2c(c1-c1ccc(NC(N)=O)cc1)CN(Cc1c(Cl)cc(C(F)(F)F)cc1C(F)(F)F)CC2` [Example 1.332], the IC50 is not above 5 nM.

Take `Cc1cccc(OCC(C)C)c1-n1nc2c(c1-c1cc(F)c(NC(N)=O)cc1Cl)CN(c1ncc(C(F)(F)F)cc1F)CC2` [Example 1.217]: the IC50 was not above 5 nM.

For the molecule `CCc1cccc(CC)c1-n1nc2c(c1-c1cc(F)c(NC(N)=O)cc1F)CN(Cc1cccc(C(F)(F)F)c1)C(C)(C)C2` [Example 1.014], the IC50 is not above 5 nM.

Regarding `Cc1cccc(C)c1-n1nc2c(c1-c1cc(F)c(NC(N)=O)cc1F)CN(C(C)(C)c1ccccc1)CC2` [Example 1.146], the IC50 is not above 5 nM.

Turning to `CCc1cccc(CC)c1-n1nc2c(c1-c1cc(F)c(NC(N)=O)cc1F)CN(Cc1ccc(C(F)(F)F)cc1Cl)C(C)(C)C2` [Example 1.035], the IC50 is not above 5 nM.

Turning to `CCC(C)(C)N1CCc2nn(-c3c(C)cccc3OCC(C)C)c(-c3cc(F)c(NC(N)=O)cc3F)c2C1` [Example 1.214], the IC50 was not above 5 nM.

For `CC(C)c1ccccc1-n1nc2c(c1-c1ccc(NC(N)=O)cc1)CN(C(=O)OC(C)(C)C)CC2` [Example 1.416], the IC50 was more than 500 nM.

Regarding `Cc1cccc(OCC(C)C)c1-n1nc2c(c1-c1ccc(NC(N)=O)cc1)CN(C(C)c1ccccc1C(F)(F)F)CC2` (stereo not shown) [Example 1.330], the IC50 was not above 5 nM.

With `Cc1cccc(OCC(C)C)c1-n1nc2c(c1-c1ccc(NC(N)=O)c(F)c1)CN(S(=O)(=O)c1ccccc1C(F)(F)F)CC2` [Example 1.229], the IC50 lay in the range of 5 to 50 nM.

As to `Cc1cccc(C)c1-n1nc2c(c1-c1cc(F)c(NC(N)=O)cc1F)CN(c1ncc(C(F)(F)F)cc1F)CC2` [Example 1.174], the IC50 is not above 5 nM.

For `CCc1cccc(CC)c1-n1nc2c(c1-c1ccc(NC(N)=O)c(F)c1)CN(Cc1ccccc1C(F)(F)F)CC2` [Example 1.244], the IC50 is not above 5 nM.

Turning to `CCc1cccc(CC)c1-n1nc2c(c1-c1cc(F)c(NC(N)=O)cc1F)CN(C(C)c1cccc(F)c1)CC2` (stereo not shown) [Example 1.181], the IC50 is not above 5 nM.

As for `Cc1cccc(OCC(C)C)c1-n1nc2c(c1-c1ccc(NC(N)=O)cc1)CN(Cc1ccc(F)cc1Cl)CC2` [Example 1.326], the IC50 is not above 5 nM.

Regarding `CCc1cccc(CC)c1-n1nc2c(c1-c1cc(F)c(NC(N)=O)cc1F)CN(C(C)(C)c1cccc(OC)c1)CC2` [Example 1.156], the IC50 was not above 5 nM.

On to `Cc1cccc(OCC(C)C)c1-n1nc2c(c1-c1ccc(NC(N)=O)c(C#N)c1)CN(c1ncc(C(F)(F)F)cc1F)CC2` [Example 1.226], for which the IC50 was more than 500 nM.

Consider `Cc1cccc(OCC(C)C)c1-n1nc2c(c1-c1ccc(NC(N)=O)c(F)c1)CN(c1ncc(C(F)(F)F)cc1Cl)CC2` [Example 1.276], for which the IC50 is not above 5 nM.

For `Cc1cccc(F)c1-n1nc2c(c1-c1ccc(NC(N)=O)cc1)CN(c1ccccc1C(C)C)CC2` [Example 1.461], the IC50 is 50 to 500 nM.

`CCc1cccc(CC)c1-n1nc2c(c1-c1cc(F)c(NC(N)=O)cc1F)CN(C(C(N)=O)c1ccccc1)CC2` (stereo not shown) [Example 1.135]: the IC50 was more than 500 nM.

For `CCc1cccc(CC)c1-n1nc2c(c1-c1cc(F)c(NC(N)=O)cc1F)CN(CC1CCCC1)C(C)(C)C2` [Example 1.043], the IC50 is not above 5 nM.

For the molecule `Cc1cccc(C)c1-n1nc2c(c1-c1cc(F)c(NC(N)=O)cc1F)CN(c1ccc(OC(F)(F)F)cc1F)CC2` [Example 1.099], the IC50 was not above 5 nM.

In the case of `Cc1cccc(OCC(C)C)c1-n1nc2c(c1-c1ccc(NC(N)=O)cc1)CN(CC(C)(C)C)CC2` [Example 1.405], the IC50 is 5 to 50 nM.

Take `CCCC(O)C(C)(C)N1CCc2nn(-c3c(CC)cccc3CC)c(-c3cc(F)c(NC(N)=O)cc3F)c2C1` (stereo not shown) [Example 1.090]: the IC50 is not above 5 nM.

Take `CCc1cccc(CC)c1-n1nc2c(c1-c1cc(F)c(NC(N)=O)cc1F)CN(Cc1cc(C(F)(F)F)ccc1F)CC2` [Example 1.039]: the IC50 is not above 5 nM.

Take `Cc1cc(C(N)=O)ccc1-c1c2c(nn1-c1c(C)cccc1OCC(C)C)CCN(c1cc(C(C)(C)C)ccc1C)C2` [Example 1.443]: the IC50 was in the range of 50 to 500 nM.

With `CCc1cccc(CC)c1-n1nc2c(c1-c1cc(F)c(NC(N)=O)cc1F)CN(Cc1cc(C(F)(F)F)ccc1C)CC2` [Example 1.036], the IC50 was not above 5 nM.

For `Cc1cccc(CCC(C)C)c1-n1nc2c(c1-c1ccc(NC(N)=O)cc1)CN(Cc1ccc(C(F)(F)F)cc1C(F)(F)F)CC2` [Example 1.337], the IC50 is 5 to 50 nM.

Turning to `Cc1ccc(N2CCc3nn(-c4c(C)cccc4OCC(C)C)c(-c4ccc(NC(N)=O)cc4)c3C2)cc1C(F)(F)F` [Example 1.440], the IC50 is 5 to 50 nM.

For `Cc1cccc(OCC(C)C)c1-n1nc2c(c1-c1ccc(NC(N)=O)c(F)c1)CN(Cc1nccs1)CC2` [Example 1.234], the IC50 is 5 to 50 nM.

Regarding `CCc1cccc(CC)c1-n1nc2c(c1-c1ccc(NC(N)=O)cc1)CN(CC(C)(C)C)CC2` [Example 1.282], the IC50 was 5 to 50 nM.

For the molecule `Cc1cccc(OCC(C)C)c1-n1nc2c(c1-c1ccc(NC(N)=O)cc1)CN(c1cc(C(C)(C)C)ccc1Cl)CC2` [Example 1.422], the IC50 was 5 to 50 nM.

Take `CCc1cccc(C)c1-n1nc2c(c1-c1ccc(NC(N)=O)cc1)CN(C(=O)OC(C)(C)C)CC2` [Example 1.399]: the IC50 is 50 to 500 nM.

In the case of `CCc1cccc(CC)c1-n1nc2c(c1-c1cc(F)c(NC(N)=O)cc1F)CN(Cc1cc(OC)ccc1C(F)(F)F)CC2` [Example 1.045], the IC50 is not above 5 nM.

`Cc1cccc(OCC(C)C)c1-n1nc2c(c1-c1ccc(NC(N)=O)cc1)CN(c1ccc(C(F)(F)F)cc1F)CC2` [Example 1.378]: the IC50 is 5 to 50 nM.

Consider `Cc1cnc(N2CCc3nn(-c4c(C)cccc4OCC(C)C)c(-c4cc(F)c(NC(N)=O)cc4F)c3C2)c(Cl)c1` [Example 1.190], for which the IC50 was not above 5 nM.

As to `Cc1cccc(OCC(C)C)c1-n1nc2c(c1-c1ccc(NC(N)=O)cc1)CN(c1ncc(Cl)cc1Cl)CC2` [Example 1.258], the 50% inhibitory concentration (IC50) is 5 to 50 nM.

Take `Cc1cccc(OCC(C)C)c1-n1nc2c(c1-c1ccc(NC(N)=O)cc1)CN(C1CCCCC1)CC2` [Example 1.406]: the IC50 is 50 to 500 nM.

For `Cc1cccc(C)c1-n1nc2c(c1-c1cc(F)c(NC(N)=O)cc1F)CN(c1ccccc1Cl)CC2` [Example 1.103], the IC50 is not above 5 nM.

On to `Cc1cccc(OCC(C)C)c1-n1nc2c(c1-c1ccc(NC(N)=O)c(F)c1Cl)CN(c1ncc(C(F)(F)F)cc1F)CC2` [Example 1.222], for which the IC50 was not above 5 nM.

With `Cc1cccc(OCC(C)C)c1-n1nc2c(c1-c1ccc(NC(N)=O)cc1)CN(Cc1ccccc1C(C)C)CC2` [Example 1.390], the IC50 lay within 5 to 50 nM.

On to `Cc1cccc(C)c1-n1nc2c(c1-c1cc(F)c(NC(N)=O)cc1F)CN(c1ncc(Cl)cc1F)CC2` [Example 1.132], for which the IC50 is not above 5 nM.

For `Cc1cccc(C)c1-n1nc2c(c1-c1cc(F)c(NC(N)=O)cc1F)CN(c1ncc(C3CC3)cc1Cl)CC2` [Example 1.124], the IC50 was not above 5 nM.

With `Cc1cccc(OCC(C)C)c1-n1nc2c(c1-c1ccc(NC(N)=O)cc1)CN(Cc1cccc(C(C)(C)C)c1)CC2` [Example 1.392], the IC50 lay in the range of 5 to 50 nM.

In the case of `Cc1cc(C(C)(C)O)cnc1N1CCc2nn(-c3c(C)cccc3OCC(C)C)c(-c3ccc(NC(N)=O)cc3)c2C1` [Example 1.364], the IC50 is more than 500 nM.

For `Cc1cccc(OCC(C)C)c1-n1nc2c(c1-c1cc(F)c(NC(N)=O)cc1F)CN(c1ncccc1C(C)C)CC2` [Example 1.191], the IC50 was not above 5 nM.

`Cc1cccc(OCC(C)C)c1-n1nc2c(c1-c1cc(F)c(NC(N)=O)cc1F)CN(c1ncc(C(F)(F)F)cc1F)CC2` [Example 1.242]: the IC50 was not above 5 nM.

As to `CCc1cccc(CC)c1-n1nc2c(c1-c1cc(F)c(NC(N)=O)cc1F)CN(Cc1ccc(OC)cc1C(F)(F)F)CC2` [Example 1.053], the IC50 is not above 5 nM.

`Cc1cccc(OCC(C)C)c1-n1nc2c(c1-c1ccc(NC(N)=O)cc1)CN(Cc1cc(F)ccc1Cl)CC2` [Example 1.320]: the IC50 is not above 5 nM.

With `Cc1cccc(OCC(C)C)c1-n1nc2c(c1-c1ccc(NC(N)=O)cc1)CN(Cc1ccc(C(F)(F)F)cc1)CC2` [Example 1.345], the IC50 was not above 5 nM.

Regarding `Cc1cnc(N2CCc3nn(-c4c(C)cccc4C)c(-c4cc(F)c(NC(N)=O)cc4F)c3C2)c(Cl)c1` [Example 1.115], the IC50 was not above 5 nM.

On to `Cc1cccc(OCC(C)C)c1-n1nc2c(c1-c1ccc(NC(N)=O)cc1)CN(CC(C)C)CC2` [Example 1.385], for which the concentration for half-maximal inhibition (IC50) was in the range of 50 to 500 nM.
